Reference: patent US20240109936A1, “NOVEL M[…] PEPTIDES” (University of Florida Research Foundation, Incorporated, priority 2020, published 2024)
Where a SMILES comes first, the peptide text is derived from it.

Columns and labels:
κ opioid receptor = molecular target: T1, κ opioid receptor (Mus musculus, UniProt P33534); conditions: non-peptide KOR antagonists; cited from earlier work
T1 construct: host or cells: living animal (CNS), endogenous receptor

mice [1] = test: Forced swim stress-induced increase in morphine consumption, two-bottle choice assay; assay type: in vivo, mouse; conditions: orally administered, FIG. 13
mice [2] = conditions: 3930 alone; place conditioning daily for 2 days; FIG. 33
Experimental: For conditioned place preference assay/reinstatement testing are conducted essentially as described for example in Brice-Tutt A C, Wilson L L, Eans S O, Stacy H M, Simons C A, Simpson G G, Coleman J S, Ferracane M J, Aldrich J V, McLaughlin J P: Multifunctional opioid receptor agonism and antagonism by a novel macrocyclic tetrapeptide prevents reinstatement of morphine-seeking behavior. British Journal of Pharmacology, 177(18):4209-4222, 2020. doi: 10.1111/bph.15165.

mice [3] = test: Naloxone precipitated withdrawal (jumping behavior) in morphine-treated mice; assay type: in vivo, mouse; conditions: five days of morphine injections; 30 mg/kg, p.o. 1 hour prior to naloxone (10 mg/kg, s.c.); FIG. 35
Experimental: For naloxone precipitated withdrawal or 2-bottle choice (TBC) assay testing are conducted essentially as described for example in Wilson L L, Harris H M, Brice-Tutt A C, Cirino T J, Eans S O, Stacy H M, Simons C A, Sharma A, Leon J F, Boyer E W, Avery B A, McLaughlin J P, McCurdy C M: Lyophilized Kratom tea as a therapeutic option for opioid dependence. Drug and Alcohol Dependence, 216:108310-108318, 2020. https://doi.org/10.1016/j.drugalcdep.2020.108310; and as follows;

mice [4] = test: Reinstatement of extinguished morphine conditioned place preference (forced swim stress- or morphine-induced); assay type: in vivo, mouse; conditions: 30 mg/kg, p.o., FIG. 34

T1 sequence (P33534 whole entry): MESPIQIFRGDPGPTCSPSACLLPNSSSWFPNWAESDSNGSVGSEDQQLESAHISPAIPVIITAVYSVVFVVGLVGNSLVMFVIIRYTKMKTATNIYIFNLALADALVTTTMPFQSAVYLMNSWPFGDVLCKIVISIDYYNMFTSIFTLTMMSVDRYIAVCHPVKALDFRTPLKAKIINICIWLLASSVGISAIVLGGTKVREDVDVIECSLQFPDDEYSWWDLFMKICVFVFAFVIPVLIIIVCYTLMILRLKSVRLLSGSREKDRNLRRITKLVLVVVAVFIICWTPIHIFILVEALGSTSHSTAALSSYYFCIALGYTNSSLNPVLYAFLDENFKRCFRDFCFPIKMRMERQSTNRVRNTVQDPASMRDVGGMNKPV

Compound: N=C(N)Nc1ccc2[nH]c3c(c2c1)C[C@@]1(O)[C@H]2Cc4ccc(O)c5c4[C@@]1(CCN2CC1CC1)[C@H]3O5 [5-guanidinylnaltrindole]
- duration of antagonism (κ opioid receptor): unusually long duration of antagonism

Compound: CC(C)[C@@H](CN1CC[C@@](C)(c2cccc(O)c2)[C@@H](C)C1)NC(=O)[C@H]1Cc2ccc(O)cc2CN1 [JDTic]
- duration of antagonism (κ opioid receptor): unusually long duration of antagonism

Compound: Oc1ccc2c3c1O[C@H]1c4[nH]c5c(c4C[C@@]4(O)[C@@H](C2)N(CC2CC2)CC[C@]314)C[C@@]1(O)[C@H]2Cc3ccc(O)c4c3[C@@]1(CCN2CC1CC1)[C@H]5O4 [nor-binaltorphimine]
- duration of antagonism (κ opioid receptor): unusually long duration of antagonism

Compound: O=C1N[C@H](Cc2ccccc2C(F)(F)F)C(=O)N[C@@H](Cc2ccccc2)C(=O)N2CCC[C@@H]2C(=O)N[C@H]1Cc1ccccc1 [compound 3930, cyclo[Phe-D-Pro-Phe-D-Phe(2-CF3)]] (HELM PEPTIDE1{F.[dP].F.[O=C([C@@H](Cc1ccccc1C(F)(F)F)N[*:1])[*:2]]}$PEPTIDE1,PEPTIDE1,1:R1-4:R2$$$V2.0)
- stress-induced increase in consumption of a morphine solution (mice [1]): can prevent a stress-induced increase in consumption of a morphine solution
- conditioned place preference or aversion (mice [2]): did not produce conditioned place preference or aversion
- frequency of jumping behavior following administration of naloxone (mice [3]): significantly reduced instances of jumping behavior
- stress- (forced swim stress, FSS) induced reinstatement of extinguished morphine-CPP (mice [4]; administered 5 min or 2.5 hr prior to FSS exposure): prevented stress-induced reinstatement of place preference
- drug-seeking behavior after an additional round of morphine-place conditioning (mice [4]; administered 5 min prior to additional round of morphine-place conditioning): no significant effect on drug-seeking behavior
